Data as given in patent US20250320213A1, “Nitrogen-Containing Heterocyclic Compounds” (Pfizer Inc., priority 2024, published 2025).

Biological target: T1, STAT6 (Homo sapiens, UniProt P42226)
T1 construct: stably transfected HaCaT keratinocyte cell line, which expresses NanoLuc luciferase reporter gene under the transcriptional control of the STAT6 responsive promoter; endogenous in cells; host or cells: HaCaT keratinocyte reporter cell line (stably transfected with a NanoLuc reporter)
T1 sequence (P42226 1-847): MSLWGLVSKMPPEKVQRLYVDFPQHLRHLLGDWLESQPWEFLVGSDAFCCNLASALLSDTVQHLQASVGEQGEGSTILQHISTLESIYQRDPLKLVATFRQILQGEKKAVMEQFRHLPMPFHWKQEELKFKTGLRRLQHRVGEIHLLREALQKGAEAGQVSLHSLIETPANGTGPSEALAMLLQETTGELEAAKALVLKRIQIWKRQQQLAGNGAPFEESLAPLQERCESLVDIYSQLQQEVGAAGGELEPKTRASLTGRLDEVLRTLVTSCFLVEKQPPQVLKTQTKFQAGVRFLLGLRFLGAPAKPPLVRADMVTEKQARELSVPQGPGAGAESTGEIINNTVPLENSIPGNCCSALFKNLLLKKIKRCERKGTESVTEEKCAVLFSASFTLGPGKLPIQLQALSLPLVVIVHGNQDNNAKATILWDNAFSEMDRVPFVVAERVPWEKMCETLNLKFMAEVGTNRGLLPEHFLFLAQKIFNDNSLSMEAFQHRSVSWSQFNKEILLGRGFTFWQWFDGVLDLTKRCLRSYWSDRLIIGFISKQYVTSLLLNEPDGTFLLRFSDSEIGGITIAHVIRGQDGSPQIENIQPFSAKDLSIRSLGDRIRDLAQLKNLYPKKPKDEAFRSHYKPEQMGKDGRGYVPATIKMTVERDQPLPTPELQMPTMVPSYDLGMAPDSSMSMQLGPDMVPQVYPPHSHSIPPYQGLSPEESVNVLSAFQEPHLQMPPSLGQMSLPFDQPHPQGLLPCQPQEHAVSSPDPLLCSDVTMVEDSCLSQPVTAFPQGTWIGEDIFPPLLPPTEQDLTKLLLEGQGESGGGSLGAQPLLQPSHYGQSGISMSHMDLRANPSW
Assay: STAT6 Reporter Luciferase Assay (IL-13 stimulated HaCaT keratinocyte NanoLuc reporter cells)
Assay type: cell-based
Settings: IL-13 stimulated HaCaT STAT6 NanoLuc reporter cells; read-out: Reporter EC50
In short: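 HaCaT cells stably carrying a NanoLuc reporter driven by the STAT6-responsive IL-13Ra2 promoter were preincubated with compounds for 2 h at 37 °C in 2% FBS medium. Cells were then stimulated with 0.12 nM IL-13 for 4 h, and luminescence was read after Nano-Glo substrate. Compounds ran as 11-point 4-fold dilutions in duplicate.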

Compared with `COC1CN(C(=O)Nc2ccc(CNC(=O)c3nn(C(C)C)c4c3CN(c3ccc(C(=O)N(C)C)cn3)CC4)cc2)C1` [Example 188, 5-(5-(dimethylcarbamoyl)pyridin-2-yl)-1-isopropyl-N-(4-(3-methoxyazetidine-1-carboxamido)benzyl)-4,5,6,7-tetrahydro-1H-pyrazolo[4,3-c]pyridine-3-carboxamide], `COCC1CCN(C(=O)c2ccc(N3CCc4c(c(C(=O)NCc5ccc(NC(=O)N(C)C)cc5)nn4C(C)C)C3)nc2)C1` (racemic) [Example 194, rac-(R)-N-(4-(3,3-dimethylureido)benzyl)-1-isopropyl-5-(5-(3-(methoxymethyl)pyrrolidine-1-carbonyl)pyridin-2-yl)-4,5,6,7-tetrahydro-1H-pyrazolo[4,3-c]pyridine-3-carboxamide] is 36-fold higher in EC50: 11 nM for the first, 401 nM for the second. The first is the more potent here.

Going from `CCC(C)n1nc(C(=O)NCc2ccc(NC(=O)N(C)C)cc2)c2c1CCN(c1ccc(C(=O)N(C)C)cn1)C2` (single isomer, unassigned) [Example 234, rel-(R or S)-1-(sec-butyl)-5-(5-(dimethylcarbamoyl)pyridin-2-yl)-N-(4-(3,3-dimethylureido)benzyl)-4,5,6,7-tetrahydro-1H-pyrazolo[4,3-c]pyridine-3-carboxamide] to `CC(C)n1nc(C(=O)NCc2ccc(NC(=O)N(C)C)cc2)c2c1CCN(c1ccc(C(=O)N3CC[C@@H](C#N)C3)cn1)C2` [Example 297, (R)-5-(5-(3-cyanopyrrolidine-1-carbonyl)pyridin-2-yl)-N-(4-(3,3-dimethylureido)benzyl)-1-isopropyl-4,5,6,7-tetrahydro-1H-pyrazolo[4,3-c]pyridine-3-carboxamide], the EC50 rises from 20 nM to 225 nM (11-fold). The first is the more potent here.

Going from `CCn1nc(C(=O)NCc2ccc(NC(=O)N(C)C)cc2)c2c1[C@@H](C)[C@H](C)N(c1ncc(C(=O)N(C)C)cn1)C2` (single isomer, unassigned) [Example 447] to `CC(C)n1nc(C(=O)NCc2ccc(NC(=O)N3CCN(C)[C@@H](C)C3)cc2)c2c1[C@@H](C)CN(c1ccc(C(=O)N(C)C)cc1)C2` [Example 735, (S)-5-(4-(dimethylcarbamoyl)phenyl)-N-(4-((S)-3,4-dimethylpiperazine-1-carboxamido)benzyl)-1-isopropyl-7-methyl-4,5,6,7-tetrahydro-1H-pyrazolo[4,3-c]pyridine-3-carboxamide], the EC50 rises from 0.4 nM to 1 nM (2.5-fold).

Compared with `Cc1nn(C)c2c1CN(C(=O)c1ccc(N3CCc4c(c(C(=O)NCc5ccc(NC(=O)N(C)C)cc5)nn4C(C)C)C3)nc1)CC2` [Example 369, 5-(5-(1,3-dimethyl-4,5,6,7-tetrahydro-1H-pyrazolo[4,3-c]pyridine-5-carbonyl)pyridin-2-yl)-N-(4-(3,3-dimethylureido)benzyl)-1-isopropyl-4,5,6,7-tetrahydro-1H-pyrazolo[4,3-c]pyridine-3-carboxamide], `Cc1nc2c(n1C)CCN(C(=O)c1ccc(N3CCc4c(c(C(=O)NCc5ccc(NC(=O)N(C)C)cc5)nn4C(C)C)C3)nc1)C2` [Example 409, 5-(5-(1,2-dimethyl-4,5,6,7-tetrahydro-1H-imidazo[4,5-c]pyridine-5-carbonyl)pyridin-2-yl)-N-(4-(3,3-dimethylureido)benzyl)-1-isopropyl-4,5,6,7-tetrahydro-1H-pyrazolo[4,3-c]pyridine-3-carboxamide] is 1.6-fold lower in EC50: 38 nM for the first, 24 nM for the second. The second is the more potent here.

First: CC(C)n1nc(C(=O)NCc2ccc(NC(=O)N3CC[C@H](CN(C)C)C3)c(F)c2)c2c1[C@@H](C)CN(c1ccc(C(=O)N(C)C)cc1)C2 [Example 684, (S)-N-(4-((R)-3-((dimethylamino)methyl)pyrrolidine-1-carboxamido)-3-fluorobenzyl)-5-(4-(dimethylcarbamoyl)phenyl)-1-isopropyl-7-methyl-4,5,6,7-tetrahydro-1H-pyrazolo[4,3-c]pyridine-3-carboxamide]
Second: CC(C)n1nc(C(=O)NCc2ccc(NC(=O)N3CCC4(CC3)CN(C)CCO4)c(F)c2)c2c1[C@@H](C)CN(c1ccc(C(=O)N(C)C)cc1)C2 [Example 643, (S)-N-(4-((5-(4-(dimethylcarbamoyl)phenyl)-1-isopropyl-7-methyl-4,5,6,7-tetrahydro-1H-pyrazolo[4,3-c]pyridine-3-carboxamido)methyl)-2-fluorophenyl)-4-methyl-1-oxa-4,9-diazaspiro[5.5]undecane-9-carboxamide]
The EC50 of the first is 2-fold higher: 2 nM for the first, 1 nM for the second. The second is the more potent here.

`CC(C)n1nc(C(=O)NCc2ccc(NC(=O)N(C)C)cc2)c2c1CCN(c1ccc(C(=O)N3CCC[C@H]3C(N)=O)cn1)C2` [Example 197, (S)-5-(5-(2-carbamoylpyrrolidine-1-carbonyl)pyridin-2-yl)-N-(4-(3,3-dimethylureido)benzyl)-1-isopropyl-4,5,6,7-tetrahydro-1H-pyrazolo[4,3-c]pyridine-3-carboxamide] and `CC(C)n1nc(C(=O)NCc2ccc(NC(=O)N(C)C)cc2)c2c1CCN(c1ccc(C(=O)N3C[C@H]4C[C@@H](C3)O4)cn1)C2` [Example 212, 5-(5-((1R,5S)-6-oxa-3-azabicyclo[3.1.1]heptane-3-carbonyl)pyridin-2-yl)-N-(4-(3,3-dimethylureido)benzyl)-1-isopropyl-4,5,6,7-tetrahydro-1H-pyrazolo[4,3-c]pyridine-3-carboxamide] are within 1.5-fold of each other in EC50: 197 nM for the first, 278 nM for the second.

First: CC(C)n1nc(C(=O)NCc2ccc(NC(=O)N3CCN(C)CC3)cc2)c2c1C(C(F)(F)F)CN(c1ccc(C(=O)N(C)C)cn1)C2 (single isomer, unassigned) [Example 692, rel-(R or S)-5-(5-(dimethylcarbamoyl)pyridin-2-yl)-1-isopropyl-N-(4-(4-methylpiperazine-1-carboxamido)benzyl)-7-(trifluoromethyl)-4,5,6,7-tetrahydro-1H-pyrazolo[4,3-c]pyridine-3-carboxamide]
Second: Cc1nnn2c1CN(C(=O)c1ccc(N3CCc4c(c(C(=O)NCc5ccc(NC(=O)N(C)C)cc5)nn4C(C)C)C3)nc1)CC2 [Example 455, N-(4-(3,3-dimethylureido)benzyl)-1-isopropyl-5-(5-(3-methyl-4,5,6,7-tetrahydro-[1,2,3]triazolo[1,5-a]pyrazine-5-carbonyl)pyridin-2-yl)-4,5,6,7-tetrahydro-1H-pyrazolo[4,3-c]pyridine-3-carboxamide]
The EC50 of the first is 1000-fold lower: 0.3 nM for the first, 311 nM for the second.

Compared with `CC(C)n1nc(C(=O)NCc2ccc(NC(=O)N(C)C)cc2)c2c1CCN(c1ccc(C(=O)N3Cc4ccccc4C3)cn1)C2` [Example 442, N-(4-(3,3-dimethylureido)benzyl)-5-(5-(isoindoline-2-carbonyl)pyridin-2-yl)-1-isopropyl-4,5,6,7-tetrahydro-1H-pyrazolo[4,3-c]pyridine-3-carboxamide], `CC(C)n1nc(C(=O)NCc2ccc(NC(=O)N3CC4(CCCN(C)C4)C3)cc2)c2c1[C@@H](C)CN(c1ccc(C(=O)N(C)C)cc1)C2` [Example 741, (S)-5-(4-(dimethylcarbamoyl)phenyl)-1-isopropyl-7-methyl-N-(4-(6-methyl-2,6-diazaspiro[3.5]nonane-2-carboxamido)benzyl)-4,5,6,7-tetrahydro-1H-pyrazolo[4,3-c]pyridine-3-carboxamide] is 2-fold lower in EC50: 2 nM for the first, 1 nM for the second. The second is the more potent here.

System: CCL17 secretion in peripheral human whole blood
Assay: Human Whole Blood (HWB) CCL17 TR-FRET Assay (IL-13 stimulated CCL17 secretion)
Assay type: cell-based
Settings: Homo sapiens, 48 h, human whole blood, IL-13 stimulated
Experimental: The IC50 (half-maximal concentration required for inhibition) of compounds for the inhibition of CCL17 secretion in peripheral human whole blood, stimulated through the IL-13-IL-13 receptor/IL-4 receptor pathway was evaluated with a TR-FRET sandwich ELISA CCL17 (TARC) Assay Kit (Bioauxilium).
Test compounds (solubilized and serially diluted in DMSO, in an 11 point, 3-fold dilution series in duplicate) were spotted, 80 nL per well, into a 384 well v-bottom polypropylene plate. Human whole blood was collected from a peripheral vein, 714 units of sodium heparin was added for every 50 mL of blood collected. Sixty μL per well of blood was added to the compound plate. The blood plate was incubated for two hours at 37° C. After two hours, CCL17 production was stimulated with the addition of 20 μL per well of IL13 (R&D Systems) in HBSS with calcium and magnesium, with a final concentration of 10 ng/mL IL13. The plate containing blood, compound, and IL-13 was incubated at 37° C. for 48 hours, to allow for CCL17 production. After 48 hours, the plate was centrifuged at 1,500 revolutions per minute (RPM) for 7 minutes, with no braking. The CCL17 TR-FRET Assay Kit detection reagent was prepared according to kit instructions and 4 μL per well of the antibody cocktail was added to a 384-well white low volume non-binding coated plate (Corning). Sixteen μL of serum from the centrifuged blood plate was transferred to the detection plate containing the TR-FRET antibody cocktail. The plate was centrifuged briefly, then covered and incubated 16 hours at room temperature. The plate was then read on an EnVision 2105 multilabel reader (PerkinElmer) with settings for TR-FRET Ratio=10,000×(fluorescence intensity 665 nm/fluorescence intensity 615 nm).

`COC1CN(C(=O)Nc2ccc(CNC(=O)c3nn(C(C)C)c4c3CN(c3ccc(C(=O)N(C)C)cn3)CC4)cc2)C1` [Example 188, 5-(5-(dimethylcarbamoyl)pyridin-2-yl)-1-isopropyl-N-(4-(3-methoxyazetidine-1-carboxamido)benzyl)-4,5,6,7-tetrahydro-1H-pyrazolo[4,3-c]pyridine-3-carboxamide] and `CCC(C)n1nc(C(=O)NCc2ccc(NC(=O)N(C)C)cc2)c2c1CCN(c1ccc(C(=O)N(C)C)cn1)C2` (single isomer, unassigned) [Example 234, rel-(R or S)-1-(sec-butyl)-5-(5-(dimethylcarbamoyl)pyridin-2-yl)-N-(4-(3,3-dimethylureido)benzyl)-4,5,6,7-tetrahydro-1H-pyrazolo[4,3-c]pyridine-3-carboxamide] are within 1.5-fold of each other in IC50: 69 nM for the first, 80 nM for the second.

Work on `CCn1nc(C(=O)NCc2ccc(NC(=O)N(C)C)cc2)c2c1[C@@H](C)[C@H](C)N(c1ncc(C(=O)N(C)C)cn1)C2` (single isomer, unassigned) [Example 447] yielded an IC50 of over 413 nM.
